One test has as its system HCT-116. The test can be described thus: Antiproliferative activity against human HCT-116 cells incubated for 48 hrs by MTT assay. The format is functional, cell-based. The settings on record: HCT-116, 48 h. Background: Tetrazolium dyes change colour on reduction, which living cells bring about.
For test [1], the target named is T1, Protein deacetylase HDAC6 (Homo sapiens, UniProt Q9UBN7).
T1 sequence (Q9UBN7 whole entry): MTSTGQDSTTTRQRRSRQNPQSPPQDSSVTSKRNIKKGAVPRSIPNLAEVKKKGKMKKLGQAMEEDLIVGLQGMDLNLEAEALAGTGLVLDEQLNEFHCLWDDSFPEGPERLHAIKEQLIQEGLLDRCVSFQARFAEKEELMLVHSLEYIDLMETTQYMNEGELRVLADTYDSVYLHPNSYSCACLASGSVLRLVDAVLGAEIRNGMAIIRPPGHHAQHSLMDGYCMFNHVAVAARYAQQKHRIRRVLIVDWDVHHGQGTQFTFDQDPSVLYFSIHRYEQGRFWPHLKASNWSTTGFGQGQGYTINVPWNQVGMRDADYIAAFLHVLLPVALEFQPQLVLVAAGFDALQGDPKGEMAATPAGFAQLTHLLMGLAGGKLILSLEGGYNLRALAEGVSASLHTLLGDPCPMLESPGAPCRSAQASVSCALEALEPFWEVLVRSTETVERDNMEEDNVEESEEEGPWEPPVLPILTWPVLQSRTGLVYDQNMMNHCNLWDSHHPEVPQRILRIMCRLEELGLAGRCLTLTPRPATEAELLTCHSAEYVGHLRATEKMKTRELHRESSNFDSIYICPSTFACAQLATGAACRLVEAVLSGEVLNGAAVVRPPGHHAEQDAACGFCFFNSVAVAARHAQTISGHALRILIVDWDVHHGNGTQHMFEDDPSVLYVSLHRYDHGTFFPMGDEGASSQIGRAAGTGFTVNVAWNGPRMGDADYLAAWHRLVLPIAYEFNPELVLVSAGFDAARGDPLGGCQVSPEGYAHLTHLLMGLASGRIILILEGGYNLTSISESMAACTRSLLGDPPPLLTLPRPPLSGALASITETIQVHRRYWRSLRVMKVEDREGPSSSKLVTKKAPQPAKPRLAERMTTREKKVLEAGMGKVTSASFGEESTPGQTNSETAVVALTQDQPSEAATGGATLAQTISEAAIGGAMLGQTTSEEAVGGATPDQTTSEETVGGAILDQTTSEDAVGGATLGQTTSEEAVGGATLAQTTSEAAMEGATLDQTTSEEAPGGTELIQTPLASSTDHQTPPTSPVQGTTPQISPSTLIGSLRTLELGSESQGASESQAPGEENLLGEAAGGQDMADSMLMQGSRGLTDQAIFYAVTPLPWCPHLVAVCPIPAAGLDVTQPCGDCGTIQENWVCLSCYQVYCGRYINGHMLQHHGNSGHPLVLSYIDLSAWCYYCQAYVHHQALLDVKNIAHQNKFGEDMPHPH
The test can be described thus: Inhibition of recombinant human HDAC6 using Boc-Lys(Ac)-AMC as substrate preincubated for 1 hr followed by substrate addition and measured after 2 hrs by microplate reader assay.

Test [2] addresses T2, Protein deacetylase HDAC6 (Homo sapiens) (UniProt Q9UBN7).
T2 sequence (whole entry): T1 sequence (Q9UBN7 whole entry)
The test can be described thus: Inhibition of HDAC6 in human HCT-116 cells assessed as upregulation of acetylated alpha-tubulin level at 1 uM incubated for 24 hrs by Western blotting analysis. The test is classed as cell-based. (In western blotting, separated proteins are transferred to a membrane and probed.)

Test [3] deals with Class 1 histone deacetylase (Homo sapiens) (UniProt Q13547+O15379+Q92769+Q9BY41). The test can be described thus: Inhibition of class 1 HDACs in human HCT-116 cells assessed as upregulation of acetylated alpha-H3 level at 1 uM incubated for 24 hrs by Western blotting analysis. The format is cell-based.
Sequence of Class 1 histone deacetylase (Homo sapiens) (O15379 whole entry, looked up): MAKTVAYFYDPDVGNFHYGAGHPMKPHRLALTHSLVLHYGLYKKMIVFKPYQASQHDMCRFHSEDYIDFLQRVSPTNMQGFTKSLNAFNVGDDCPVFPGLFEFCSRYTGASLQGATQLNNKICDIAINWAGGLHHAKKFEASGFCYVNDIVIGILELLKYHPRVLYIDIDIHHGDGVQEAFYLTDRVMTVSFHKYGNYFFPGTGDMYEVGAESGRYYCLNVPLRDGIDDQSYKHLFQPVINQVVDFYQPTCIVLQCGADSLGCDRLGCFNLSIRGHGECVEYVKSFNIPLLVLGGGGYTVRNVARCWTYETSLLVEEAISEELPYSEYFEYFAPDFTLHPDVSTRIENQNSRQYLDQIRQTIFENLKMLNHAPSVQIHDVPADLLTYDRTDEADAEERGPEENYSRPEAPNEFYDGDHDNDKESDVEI
Sequence of Class 1 histone deacetylase (Homo sapiens) (Q13547 whole entry, looked up): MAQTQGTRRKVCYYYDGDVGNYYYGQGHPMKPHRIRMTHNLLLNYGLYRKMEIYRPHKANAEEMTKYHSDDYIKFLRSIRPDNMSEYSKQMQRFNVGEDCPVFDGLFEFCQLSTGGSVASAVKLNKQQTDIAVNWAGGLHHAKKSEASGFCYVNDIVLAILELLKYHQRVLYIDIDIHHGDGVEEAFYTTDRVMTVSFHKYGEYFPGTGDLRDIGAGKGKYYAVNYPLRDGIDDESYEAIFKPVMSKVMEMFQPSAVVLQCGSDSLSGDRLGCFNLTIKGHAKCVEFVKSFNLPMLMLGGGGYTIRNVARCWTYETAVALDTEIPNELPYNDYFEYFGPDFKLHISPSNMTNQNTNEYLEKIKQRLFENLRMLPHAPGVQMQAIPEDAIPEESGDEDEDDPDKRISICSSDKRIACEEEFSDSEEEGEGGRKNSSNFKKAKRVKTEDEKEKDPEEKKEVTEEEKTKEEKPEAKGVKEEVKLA
Sequence of Class 1 histone deacetylase (Homo sapiens) (Q92769 whole entry, looked up): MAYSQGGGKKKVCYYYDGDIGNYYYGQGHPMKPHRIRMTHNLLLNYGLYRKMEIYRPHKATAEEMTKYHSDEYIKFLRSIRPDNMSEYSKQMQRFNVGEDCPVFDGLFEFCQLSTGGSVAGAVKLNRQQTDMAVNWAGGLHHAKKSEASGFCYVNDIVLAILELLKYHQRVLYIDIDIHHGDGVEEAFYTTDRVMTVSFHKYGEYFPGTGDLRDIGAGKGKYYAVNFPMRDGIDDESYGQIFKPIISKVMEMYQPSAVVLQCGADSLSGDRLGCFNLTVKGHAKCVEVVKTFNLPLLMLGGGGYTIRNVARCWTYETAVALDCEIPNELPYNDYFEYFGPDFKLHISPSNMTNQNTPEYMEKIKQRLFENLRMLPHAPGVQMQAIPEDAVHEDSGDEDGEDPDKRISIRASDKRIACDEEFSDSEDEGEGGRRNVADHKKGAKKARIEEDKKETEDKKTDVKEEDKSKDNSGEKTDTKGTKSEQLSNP
Sequence of Class 1 histone deacetylase (Homo sapiens) (Q9BY41 whole entry, looked up): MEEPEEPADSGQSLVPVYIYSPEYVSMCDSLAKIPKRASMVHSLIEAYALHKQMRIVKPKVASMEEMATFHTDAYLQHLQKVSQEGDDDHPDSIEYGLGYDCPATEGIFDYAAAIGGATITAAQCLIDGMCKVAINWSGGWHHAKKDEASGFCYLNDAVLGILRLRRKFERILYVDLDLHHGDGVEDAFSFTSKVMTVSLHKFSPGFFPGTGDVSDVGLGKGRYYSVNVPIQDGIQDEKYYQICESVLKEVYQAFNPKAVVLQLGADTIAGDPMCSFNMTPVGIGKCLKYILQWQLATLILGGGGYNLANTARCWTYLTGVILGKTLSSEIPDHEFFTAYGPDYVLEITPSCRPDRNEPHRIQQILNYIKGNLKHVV
In the next test the test system is NCI-H1581. The test can be described thus: Antiproliferative activity against human NCI-H1581 cells incubated for 48 hrs by MTT assay. The format is functional, cell-based. The settings on record: NCI-H1581, 48 h.
The next test deals with Histone deacetylase 1 (Homo sapiens, UniProt Q13547). The test can be described thus: Inhibition of recombinant human HDAC1 using Boc-Lys(Ac)-AMC as substrate preincubated for 1 hr followed by substrate addition and measured after 2 hrs by microplate reader assay.
Sequence of Histone deacetylase 1 (Q13547 whole entry): as the sequence (Q13547 whole entry, looked up) above
A further test relates to EBC-1. The test can be described thus: Antiproliferative activity against human EBC-1 cells incubated for 48 hrs by MTT assay. The format is functional, cell-based. The settings on record: EBC-1, 48 h.

Drawing on ChEMBL document CHEMBL5584238, “Psammaplin A analogues with modified disulfide bond targeting histone deacetylases: Synthesis and biological evaluation” (Eur J Med Chem, 2024), this text covers IC50 and inhibition for 1 compound.

pIC50: −log10 of the molar value. The source made the active and inactive calls. The calls are words filed in the database; no cut-off is given here.

For `O=C(NCC[Se][Se]CCNC(=O)/C(Cc1ccc(Br)s1)=N/O)/C(Cc1ccc(Br)s1)=N/O`, the pIC50 (usually −log10 of the IC50, conventionally taken in molar units) in the test on HCT-116 is 6.39; in test [1], 5.44; in the test on NCI-H1581, 6.52; at Histone deacetylase 1, 6.24; in the test with EBC-1, 6.14. Moreover, the inhibition result in test [2] and in test [3] was “Active” each time.
